The record followed here is patent US11242337B2, “Compounds useful for treating gastrointestinal tract disorders” (Ardelyx, Inc., priority 2017, dated 2022).

Structures are written as SMILES. Some results are limits rather than exact numbers.

By IC50 is commonly meant the concentration at which inhibition is half-maximal.

Experiment [1] concerns the target T1, NHE3 (Homo sapiens, UniProt P48764).
T1 construct: expressed in transfected cells
T1 sequence (P48764 26-834): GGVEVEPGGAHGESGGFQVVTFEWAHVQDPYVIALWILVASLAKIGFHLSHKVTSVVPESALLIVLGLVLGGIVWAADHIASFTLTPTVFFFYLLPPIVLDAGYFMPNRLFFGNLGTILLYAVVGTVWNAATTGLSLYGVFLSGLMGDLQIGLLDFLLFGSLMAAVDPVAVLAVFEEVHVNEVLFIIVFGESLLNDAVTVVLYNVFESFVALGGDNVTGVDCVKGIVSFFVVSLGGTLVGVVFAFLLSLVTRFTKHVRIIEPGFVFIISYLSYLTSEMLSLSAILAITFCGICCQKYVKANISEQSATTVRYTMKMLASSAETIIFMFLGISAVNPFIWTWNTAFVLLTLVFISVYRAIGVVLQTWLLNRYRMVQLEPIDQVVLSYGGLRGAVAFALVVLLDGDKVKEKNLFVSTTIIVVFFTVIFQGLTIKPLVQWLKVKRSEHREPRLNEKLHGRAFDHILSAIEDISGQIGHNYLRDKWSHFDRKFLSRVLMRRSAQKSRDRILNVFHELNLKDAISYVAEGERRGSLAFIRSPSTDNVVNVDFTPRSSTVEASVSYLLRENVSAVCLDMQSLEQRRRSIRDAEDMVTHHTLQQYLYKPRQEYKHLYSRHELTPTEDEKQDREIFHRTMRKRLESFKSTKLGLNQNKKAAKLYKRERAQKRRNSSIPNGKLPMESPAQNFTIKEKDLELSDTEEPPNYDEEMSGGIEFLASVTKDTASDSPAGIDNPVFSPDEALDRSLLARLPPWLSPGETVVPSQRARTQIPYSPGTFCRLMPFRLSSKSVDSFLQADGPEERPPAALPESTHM
T1 sequence (Q99653 2-195 partner limits assumed): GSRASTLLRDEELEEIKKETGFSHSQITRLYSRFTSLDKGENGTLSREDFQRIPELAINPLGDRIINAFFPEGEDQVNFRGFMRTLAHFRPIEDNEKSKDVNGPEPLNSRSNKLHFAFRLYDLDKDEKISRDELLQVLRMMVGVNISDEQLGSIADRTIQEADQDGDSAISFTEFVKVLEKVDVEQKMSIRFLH
In words: Cell-based assay of NHE-3 activity (pre-incubation inhibition), human. Particulars: human Preincubation; for pIC50 / IC50: 0-30 μM test compound. Put shortly: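 PS120 fibroblasts stably expressing human NHE3 and NHERF2, loaded 30 min at 37 °C with 5 μM BCECF-AM in NH4Cl buffer, then acidified 10 min at room temperature in Na+-free buffer with 0–30 μM compound. Initial rate of BCECF fluorescence ratio change (FLIPR) per minute taken as Na+/H+ activity.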

The target in experiment [2] is T1, NHE3. In words: Cell-based assay of NHE-3 activity (persistent inhibition), human. The note with it: human Persistence, 60 min incubation then washout. An outline of the steps: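 PS120 fibroblasts expressing human NHE3 with NHERF2 exposed to 0-30 μM compound for 60 min at RT, then washed out; cells acid-loaded by NH4Cl prepulse with BCECF-AM and Na+-free buffer. Na+-driven pH recovery started 10 min post-washout; initial rate of BCECF ratio change (FLIPR) taken as activity.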

`CN(C)[C@@H]1CCCN([C@H]2Cc3c(Cl)cc(Cl)cc3[C@@H]2Oc2ccc(S(=O)(=O)NCCOCCOCCNC(=O)NCCCCNC(=O)NCCOCCOCCNS(=O)(=O)c3ccc(O[C@H]4c5cc(Cl)cc(Cl)c5C[C@@H]4N4CCC[C@@H](N(C)C)C4)cc3)cc2)C1` [Example 25]: the “% inhibition” value in experiment [1] and in experiment [2] was “C (>70%)” each time.
In the case of `CN(C)[C@H]1Cc2c(C#N)cc(Cl)cc2[C@@H]1Oc1ccc(S(=O)(=O)NCCOCCOCCNC(=O)NCCCCNC(=O)NCCOCCOCCNS(=O)(=O)c2ccc(O[C@H]3c4cc(Cl)cc(C#N)c4C[C@@H]3N(C)C)c(F)c2)cc1F` [Example 37, 3-[2-(2-[2-[(4-[[(1S,2S)-6-Chloro-4-cyano-2-(dimethylamino)-2,3-dihydro-1H-inden-1-yl]oxy]-3-fluorobenzene)sulfonamido]ethoxy]ethoxy)ethyl]-1-[4-([[2-(2-[2-[(4-[[(1S,2S)-6-chloro-4-cyano-2-(dimethylamino)-2,3-dihydro-1H-inden-1-yl]oxy]-3-fluorobenzene)sulfonamido]ethoxy]ethoxy)ethyl]carbamoyl]amino)butyl]urea], the “% inhibition” value in experiment [1] and in experiment [2] was “B (40-70%)” in each case. For the same compound, the pIC50 result in experiment [1] and in experiment [2] was “C (NHE3 pIC50 > 7)” each time.
Take `N#Cc1cc(Cl)cc2c1C[C@H](N1CCC[C@@H](N)C1)[C@H]2Oc1ccc(S(=O)(=O)NCCOCCOCCNC(=O)NCCCCNC(=O)NCCOCCOCCNS(=O)(=O)c2ccc(O[C@H]3c4cc(Cl)cc(C#N)c4C[C@@H]3N3CCC[C@@H](N)C3)c(F)c2)cc1F` [Example 38]: in experiment [1], the “% inhibition” value is on record as “A (NHE3 < 40%)” and the pIC50 result was “A (NHE3 pIC50 < 6)”. For the same compound, in experiment [2], the “% inhibition” value is reported as “A (NHE3 < 40%)” and the pIC50 entry is “A (NHE3 pIC50 < 6)”.
As for `Cc1cc(S(=O)(=O)NCCOCCOCCNC(=O)NCCCCNC(=O)NCCOCCOCCNS(=O)(=O)c2ccc(O[C@H]3c4cc(Cl)cc(C#N)c4C[C@@H]3N3CCC[C@@H](N(C)C)C3)c(C)c2)ccc1O[C@H]1c2cc(Cl)cc(C#N)c2C[C@@H]1N1CCC[C@@H](N(C)C)C1` [Example 39], in experiment [1], the “% inhibition” value is given as “A (NHE3 < 40%)” and the pIC50 entry is listed as “C (NHE3 pIC50 > 7)”. Moreover, in experiment [2], the “% inhibition” value is on record as “A (NHE3 < 40%)” and the pIC50 entry was “C (NHE3 pIC50 > 7)”.
Regarding `CN(C)[C@@H]1CCCN([C@H]2Cc3c(C#N)cc(Cl)cc3[C@@H]2Oc2ccc(S(=O)(=O)NCCOCCOCCNC(=O)NCCCCNC(=O)NCCOCCOCCNS(=O)(=O)c3ccc(O[C@H]4c5cc(Cl)cc(C#N)c5C[C@@H]4N4CCC[C@@H](N(C)C)C4)c(F)c3)cc2F)C1` [Example 40, 3-[2-(2-[2-[(4-[[(1S,2S)-6-Chloro-4-cyano-2-[(3R)-3-(dimethylamino)piperidin-1-yl]-2,3-dihydro-1H-inden-1-yl]oxy]-3-fluorobenzene)sulfonamido]ethoxy]ethoxy)ethyl]-1-[4-([[2-(2-[2-[(4-[[(1S,2S)-6-chloro-4-cyano-2-[(3R)-3-(dimethylamino)piperidin-1-yl]-2,3-dihydro-1H-inden-1-yl]oxy]-3-fluorobenzene)sulfonamido]ethoxy]ethoxy)ethyl]carbamoyl]amino)butyl]urea; bis(trifluoroacetic acid)], the “% inhibition” value in experiment [1] and in experiment [2] was “A (NHE3 < 40%)” each time.
Consider `Cc1cc(S(=O)(=O)N2CC[C@H](COCCOCCNC(=O)NCCCCNC(=O)NCCOCCOC[C@H]3CCN(S(=O)(=O)c4ccc(O[C@H]5c6cc(Cl)cc(Cl)c6C[C@@H]5N(C)C)c(C)c4)C3)C2)ccc1O[C@H]1c2cc(Cl)cc(Cl)c2C[C@@H]1N(C)C` [Example 44, 3-[2-(2-[[(3S)-1-[(4-[[(1S,2S)-4,6-dichloro-2-(dimethylamino)-2,3-dihydro-1H-inden-1-yl]oxy]-3-methylbenzene)sulfonyl]pyrrolidin-3-yl]methoxy]ethoxy)ethyl]-1-[4-([[2-(2-[[(3S)-1-[(4-[[(1S,2S)-4,6-dichloro-2-(dimethylamino)-2,3-dihydro-1H-inden-1-yl]oxy]-3-methylbenzene)sulfonyl]pyrrolidin-3-yl]methoxy]ethoxy)ethyl]carbamoyl]amino)butyl]urea; bis(trifluoroacetic acid)], for which the “% inhibition” value in experiment [1] and in experiment [2] was “C (>70%)” each time. In addition, the pIC50 result in experiment [1] is listed as “C (NHE3 pIC50 > 7)”; in experiment [2], “B (NHE3 pIC50 6-7)”.
As to `Cc1cc(S(=O)(=O)N2CC[C@H](COCCOCCNC(=O)NCCCCNC(=O)NCCOCCOC[C@H]3CCN(S(=O)(=O)c4ccc(O[C@H]5c6cc(Cl)cc(C#N)c6C[C@@H]5N(C)C)c(C)c4)C3)C2)ccc1O[C@H]1c2cc(Cl)cc(C#N)c2C[C@@H]1N(C)C` [Example 46, 3-[2-(2-[[(3S)-1-[(4-[[(1S,2S)-6-Chloro-4-cyano-2-(dimethylamino)-2,3-dihydro-1H-inden-1-yl]oxy]-3-methylbenzene)sulfonyl]pyrrolidin-3-yl]methoxy]ethoxy)ethyl]-1-[4-([[2-(2-[[(3S)-1-[(4-[[(1S,2S)-6-chloro-4-cyano-2-(dimethylamino)-2,3-dihydro-1H-inden-1-yl]oxy]-3-methylbenzene)sulfonyl]pyrrolidin-3-yl]methoxy]ethoxy)ethyl]carbamoyl]amino)butyl]urea; bis(trifluoroacetic acid)], in experiment [1], the “% inhibition” value was “C (>70%)” and the IC50 is below 100 nM. Besides, in experiment [2], the “% inhibition” value is reported as “C (>70%)” and the IC50 was below 100 nM.
In the case of `Cc1cc(S(=O)(=O)N2CC[C@@H](COCCOCCNC(=O)NCCCCNC(=O)NCCOCCOC[C@@H]3CCN(S(=O)(=O)c4ccc(O[C@H]5c6cc(Cl)cc(C#N)c6C[C@@H]5N(C)C)c(C)c4)C3)C2)ccc1O[C@H]1c2cc(Cl)cc(C#N)c2C[C@@H]1N(C)C` [Example 47], the “% inhibition” value in experiment [1] and in experiment [2] was “C (>70%)” in each case.
With `Cc1cc(S(=O)(=O)N2CC[C@H](COc3ccnc(CNC(=O)NCCCCNC(=O)NCc4cc(OC[C@H]5CCN(S(=O)(=O)c6ccc(O[C@H]7c8cc(Cl)cc(Cl)c8C[C@@H]7N(C)C)c(C)c6)C5)ccn4)c3)C2)ccc1O[C@H]1c2cc(Cl)cc(Cl)c2C[C@@H]1N(C)C` [Example 48, 3-[(4-[[(3S)-1-[(4-[[(1S,2S)-4,6-Dichloro-2-(dimethylamino)-2,3-dihydro-1H-inden-1-yl]oxy]-3-methylbenzene)sulfonyl]pyrrolidin-3-yl]methoxy]pyridin-2-yl)methyl]-1-[4-([[(4-[[(3S)-1-[(4-[[(1S,2S)-4,6-dichloro-2-(dimethylamino)-2,3-dihydro-1H-inden-1-yl]oxy]-3-methylbenzene)sulfonyl]pyrrolidin-3-yl]methoxy]pyridin-2-yl)methyl]carbamoyl]amino)butyl]urea], in experiment [1], the “% inhibition” value is reported as “B (40-70%)” and the IC50 was 100 to 1000 nM. Moreover, in experiment [2], the “% inhibition” value is “C (>70%)” and the IC50 was 100 to 1000 nM.
As to `Cc1cc(S(=O)(=O)N2CC[C@H](COc3ccnc(CNC(=O)NCCCCNC(=O)NCc4cc(OC[C@H]5CCN(S(=O)(=O)c6ccc(O[C@H]7c8cc(Cl)cc(C#N)c8C[C@@H]7N(C)C)c(C)c6)C5)ccn4)c3)C2)ccc1O[C@H]1c2cc(Cl)cc(C#N)c2C[C@@H]1N(C)C` [Example 50], in experiment [1], the “% inhibition” value is recorded as “B (40-70%)” and the pIC50 entry is listed as “C (NHE3 pIC50 > 7)”. Further, in experiment [2], the “% inhibition” value is reported as “B (40-70%)” and the pIC50 result was “C (NHE3 pIC50 > 7)”.
